From PubChem BioAssay AID328 (DTP/NCI, 2004)
Inconclusive results and toxic doses are left out.

Test system: BDF1 mice, P388 leukemia ip, median survival T/C
Assay: NCI In Vivo Anticancer Drug Screen. Data for tumor model P388 Leukemia (intraperitoneal) in B6D2F1 (BDF1) mice
Conditions: endpoint: median survival time, higher = longer survival
Procedure, shortened: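 Transplantable tumour in mice; compound vs vehicle dosing; survival scored; ratio of treated to control reported.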

[1] = dose: 50.0 mg/kg/injection, schedule: Q04DX003 (ip), vehicle: saline with Tween-80
[2] = dose: 100.0 mg/kg/injection, schedule: Q04DX003 (ip), vehicle: saline with Tween-80
[3] = dose: 50.0 mg/kg/injection, schedule: Q01DX009 (ip), vehicle: saline with Tween-80
[4] = dose: 100.0 mg/kg/injection, schedule: Q01DX009 (ip), vehicle: saline with Tween-80
[5] = dose: 200.0 mg/kg/injection, schedule: Q01DX009 (ip), vehicle: saline with Tween-80
[6] = dose: 100.0 mg/kg/injection, schedule: Q01DX009 (ip), vehicle: saline
[7] = dose: 25.0 mg/kg/injection, schedule: Q01DX009 (ip), vehicle: saline with Tween-80
[8] = dose: 200.0 mg/kg/injection, schedule: Q04DX003 (ip), vehicle: saline sonified
[9] = dose: 25.0 mg/kg/injection, schedule: Q01DX009 (ip), vehicle: Klucel (hydroxypropylcellulose) (HPC)
[10] = dose: 50.0 mg/kg/injection, schedule: Q01DX009 (ip), vehicle: Klucel (hydroxypropylcellulose) (HPC)
[11] = dose: 200.0 mg/kg/injection, schedule: Q01DX009 (ip), vehicle: Klucel (hydroxypropylcellulose) (HPC)
[12] = dose: 100.0 mg/kg/injection, schedule: Q01DX001 (ip), vehicle: Klucel (hydroxypropylcellulose) (HPC)
[13] = dose: 200.0 mg/kg/injection, schedule: Q01DX001 (ip), vehicle: Klucel (hydroxypropylcellulose) (HPC)
[14] = dose: 400.0 mg/kg/injection, schedule: Q01DX001 (ip), vehicle: Klucel (hydroxypropylcellulose) (HPC)
[15] = dose: 400.0 mg/kg/injection, schedule: Q01DX009 (ip), vehicle: Klucel (hydroxypropylcellulose) (HPC)
[16] = dose: 12.5 mg/kg/injection, schedule: Q01DX009 (ip), vehicle: Klucel (hydroxypropylcellulose) (HPC)
[17] = dose: 100.0 mg/kg/injection, schedule: Q04DX003 (ip), vehicle: Klucel (hydroxypropylcellulose) (HPC)
[18] = dose: 200.0 mg/kg/injection, schedule: Q04DX003 (ip), vehicle: Klucel (hydroxypropylcellulose) (HPC)
[19] = dose: 400.0 mg/kg/injection, schedule: Q04DX003 (ip), vehicle: Klucel (hydroxypropylcellulose) (HPC)
[20] = dose: 50.0 mg/kg/injection, schedule: Q04DX003 (ip), vehicle: Klucel (hydroxypropylcellulose) (HPC)

## CSC(=S)N/N=C(\C)c1ccccn1
dose: 25.0 mg/kg/injection, schedule: Q04DX003 (ip), vehicle: saline with Tween-80
  T/C: 92 % of control
[1]
  T/C: 99 % of control
[2]
  T/C: 106 % of control

## CC(C)NC(=O)c1ccccc1S(=O)c1ccccc1C(=O)NC(C)C
[3]
  T/C: 104 % of control
[4]
  T/C: 100 % of control
[5]
  T/C: 108 % of control

## O=C(O)/C=C\C(=O)Nc1ccccc1NC(=O)/C=C/C(=O)O
[6]
  T/C: 104 % of control
dose: 200.0 mg/kg/injection, schedule: Q01DX009 (ip), vehicle: saline
  T/C: 113 % of control
dose: 400.0 mg/kg/injection, schedule: Q01DX009 (ip), vehicle: saline
  T/C: 109 % of control

## CC(C)(C)C(=O)C(Oc1ccc(Cl)cc1)n1cncn1 (centres undefined)
[3]
  T/C: 100 % of control
[4]
  T/C: 100 % of control
[5]
  T/C: 100 % of control

## CCC1=C(c2cc(Cl)c3ccccc3c2OCC(=O)O)OC(CC)(C(=O)c2cc(Cl)c3ccccc3c2OCC(=O)O)CC1 (centres undefined)
[7]
  T/C: 90 % of control
[3]
  T/C: 95 % of control
dose: 50.0 mg/kg/injection, schedule: Q04DX003 (ip), vehicle: saline sonified
  T/C: 100 % of control
[4]
  T/C: 115 % of control
[8]
  T/C: 90 % of control

## OC(Cc1nc2ccccc2nc1CC(O)(c1ccccc1)c1ccccc1)(c1ccccc1)c1ccccc1
[3]
  T/C: 90 % of control
[4]
  T/C: 98 % of control
[5]
  T/C: 106 % of control

## CS(=O)(=O)OC[C@@H](O)[C@@H](O)COS(C)(=O)=O
dose: 50.0 mg/kg/injection, schedule: Q01DX009 (ip), vehicle: saline
  T/C: 116 % of control
[6]
  T/C: 107 % of control

## COc1ccc2ccccc2c1C1NC(=O)c2ccccc2N1 (centres undefined)
[9]
  T/C: 115 % of control
[10]
  T/C: 100 % of control
[11]
  T/C: 166 % of control

## CCCCCCCCCCCCO[P+](=O)OCCCCCCCCCCCC
[8]
  T/C: 100 % of control
dose: 400.0 mg/kg/injection, schedule: Q04DX003 (ip), vehicle: saline sonified
  T/C: 100 % of control

## CCOC(=O)/C(C#N)=C\c1cc(=O)c(OC)co1
[12]
  T/C: 90 % of control
[13]
  T/C: 100 % of control
[14]
  T/C: 100 % of control

## Cn1nc(NC(=O)C(F)(F)F)c2ncc(-c3ccccc3)nc21
[1]
  T/C: 105 % of control
[2]
  T/C: 100 % of control
dose: 200.0 mg/kg/injection, schedule: Q04DX003 (ip), vehicle: saline with Tween-80
  T/C: 100 % of control

## CC(=NCc1ccccc1)C(C)(O)c1ccccc1 (centres undefined)
[12]
  T/C: 100 % of control
dose: 100.0 mg/kg/injection, schedule: Q01DX001 (ip), vehicle: saline
  T/C: 109 % of control
dose: 100.0 mg/kg/injection, schedule: Q01DX009 (ip), vehicle: Klucel (hydroxypropylcellulose) (HPC)
  T/C: 110 % of control
[13]
  T/C: 104 % of control
dose: 200.0 mg/kg/injection, schedule: Q01DX001 (ip), vehicle: saline
  T/C: 100 % of control
[11]
  T/C: 100 % of control
[14]
  T/C: 100 % of control
dose: 400.0 mg/kg/injection, schedule: Q01DX001 (ip), vehicle: saline
  T/C: 118 % of control
[15]
  T/C: 105 % of control

## C1=CC23C4CCC2C2C4C4C(=C1)C3C2N1CCCCC41 (centres undefined)
[16]
  T/C: 104 % of control
[9]
  T/C: 100 % of control
dose: 37.5 mg/kg/injection, schedule: Q04DX003 (ip), vehicle: Klucel (hydroxypropylcellulose) (HPC)
  T/C: 91 % of control
[10]
  T/C: 100 % of control
dose: 75.0 mg/kg/injection, schedule: Q04DX003 (ip), vehicle: Klucel (hydroxypropylcellulose) (HPC)
  T/C: 100 % of control

## CCC(C)C(=O)O[C@H]1C(=O)O[C@@H]2C[C@H]3C(C)=CC(=O)[C@@H](O)[C@]3(C)[C@H]3[C@@H](O)[C@H](O)[C@@]4(C)OC[C@]32[C@@H]14 (some centres undefined)
dose: 0.06 mg/kg/injection, schedule: Q01DX009 (ip), vehicle: saline + alcohol
  T/C: 115 % of control
dose: 0.75 mg/kg/injection, schedule: Q01DX009 (ip), vehicle: saline + alcohol
  T/C: 159 % of control
dose: 1.0 mg/kg/injection, schedule: Q01DX009 (ip), vehicle: saline + alcohol
  T/C: 198 % of control
dose: 1.5 mg/kg/injection, schedule: Q01DX009 (ip), vehicle: saline + alcohol
  T/C: 154 % of control
dose: 2.0 mg/kg/injection, schedule: Q01DX009 (ip), vehicle: saline + alcohol
  T/C: 155 % of control
dose: 3.0 mg/kg/injection, schedule: Q01DX009 (ip), vehicle: saline + alcohol
  T/C: 104 % of control
dose: 4.0 mg/kg/injection, schedule: Q01DX009 (ip), vehicle: saline + alcohol
  T/C: 180 % of control

## CN(C)c1ccc(C=C(C#N)C#N)cc1
[17]
  T/C: 100 % of control
[11]
  T/C: 90 % of control
[18]
  T/C: 100 % of control
[15]
  T/C: 113 % of control
[19]
  T/C: 90 % of control

## O=C(O)c1ccc(COc2ccc([N+](=O)[O-])cc2Cl)cc1
[3]
  T/C: 91 % of control
[4]
  T/C: 100 % of control
[5]
  T/C: 100 % of control

## CC1(C)COC(C)(C)C(=O)O1
[20]
  T/C: 95 % of control
[17]
  T/C: 90 % of control
[18]
  T/C: 100 % of control

## O=[N+]([O-])c1ccc(N2CCN(c3ccc([N+](=O)[O-])c4c3no[n+]4[O-])CC2)c2c1no[n+]2[O-]
dose: 15.0 mg/kg/injection, schedule: Q04DX003 (ip), vehicle: saline with Tween-80
  T/C: 111 % of control
dose: 30.0 mg/kg/injection, schedule: Q04DX003 (ip), vehicle: saline with Tween-80
  T/C: 106 % of control
dose: 60.0 mg/kg/injection, schedule: Q04DX003 (ip), vehicle: saline with Tween-80
  T/C: 101 % of control

## ClC1CC[N-]CC1.ClC1CC[N-]CC1.[Cl][Pt+2]([Cl])([Cl])[Cl]
[16]
  T/C: 182 % of control
[9]
  T/C: 221 % of control
[10]
  T/C: 115 % of control

## CCCCCCCCCCCCOc1ccccc1C=O
[20]
  T/C: 104 % of control
[17]
  T/C: 100 % of control
dose: 100.0 mg/kg/injection, schedule: Q04DX003 (ip), vehicle: saline sonified
  T/C: 118 % of control
[18]
  T/C: 118 % of control
[8]
  T/C: 122 % of control
[19]
  T/C: 109 % of control

## NC(=O)N/N=C1\CCCC(CCC(=O)O)C1 (centres undefined)
[12]
  T/C: 96 % of control
[13]
  T/C: 100 % of control
[14]
  T/C: 100 % of control

## CNC(=S)ON1CCCCC1
[3]
  T/C: 116 % of control
[4]
  T/C: 114 % of control
[5]
  T/C: 121 % of control

## Cn1cnc([N+](=O)[O-])c1Cl
[7]
  T/C: 101 % of control
dose: 50.0 mg/kg/injection, schedule: Q01DX005 (ip), vehicle: saline
  T/C: 95 % of control
[3]
  T/C: 92 % of control
dose: 100.0 mg/kg/injection, schedule: Q01DX005 (ip), vehicle: saline
  T/C: 104 % of control
[4]
  T/C: 106 % of control
dose: 100.0 mg/kg/injection, schedule: Q04DX003 (ip), vehicle: saline
  T/C: 100 % of control
[5]
  T/C: 101 % of control
dose: 200.0 mg/kg/injection, schedule: Q04DX003 (ip), vehicle: saline
  T/C: 105 % of control

## COC(=O)C(Cl)(Cl)N=Nc1c(Cl)cc(Cl)c(C)c1Cl
[7]
  T/C: 119 % of control
[3]
  T/C: 124 % of control
[5]
  T/C: 89 % of control
